According to patent US9577283B2, “Energy storage battery” (NISSIN ELECTRIC CO., LTD., priority 2012, dated 2017):

Experiment: attempt to prepare 0.2 mol/L aqueous solution of Mn(II) complex (deposition of manganese compound)
Type: physicochemical
Details: target concentration 0.2 mol/L, metal:ligand 1:1, pH 7, with Na2SO4
Source text: Accordingly, it was known that if malonic acid as a polycarboxylic acid is used instead of polyethyleneimine, it is impossible to prepare a cathode electrolyte containing a Mn(II) complex in a sufficient concentration.
Accordingly, it was known that if succinic acid as a polycarboxylic acid is used instead of polyethyleneimine, it is impossible to prepare a cathode electrolyte containing a Mn(II) complex at a sufficient concentration.
Accordingly, it was known that if ethylenediamine is used instead of polyethyleneimine, it is impossible to prepare a cathode electrolyte containing a Mn(II) complex at a sufficient concentration.
Meanwhile, the cathode electrolyte was prepared as follows. Firstly, 0.1 mol (6.0 g) of ethylenediamine was added to and dissolved in 70 ml of distilled water.

Substance: Mn(II)-malonic acid complex
- deposition of manganese compound on preparing aqueous solution: manganese compound is immediately deposited
